According to publication PMC10994248 (The Oncologist, 2024):

Test: Phase I safety and tolerability (TEAEs, DLTs, MTD, DRDE) in patients with advanced solid tumors
Type: in vivo, human
Procedure: This 2-part, open-label, phase I study was conducted at the MD Anderson Cancer Center in Texas, USA and the Cancer Hospital Chinese Academy of Medical Sciences in Beijing, China. […] This was followed by a dose-expansion phase, the primary objective of which was to confirm the safety and tolerability of tinengotinib at the DRDE. Secondary objectives were to characterize the pharmacokinetics and preliminary efficacy of tinengotinib.
Dose escalation was guided by an adaptive Bayesian logistic regression model using the Escalation with Overdose Control principle.[6],[7] Study data (including DLTs, grade 2 adverse events during cycle 1, and pharmacokinetic data) were reviewed by the sponsor and trial investigators at each dose level and used to guide dose-escalation decisions. MTD was based on the Bayesian model, but with consideration given to available safety and tolerability data. DRDE was based on an evaluation of all available data (safety, clinical activity, and pharmacokinetics).
After determination of the DRDE, the dose-expansion phase was opened to further characterize safety and pharmacokinetics, and to assess preliminary efficacy.
Routine safety assessments of adverse events, laboratory tests (hematology, coagulation, biochemistry, and urinalysis), vital signs, and 12-lead electrocardiograms were performed. Adverse events were graded according to the National Cancer Institute Common Terminology Criteria for Adverse Events (CTCAE), version 5.0.

[1] = dose escalation (n = 40), any grade
[2] = dose escalation (n = 40), grade ≥3
[3] = dose expansion (12 mg, n = 8), any grade
[4] = dose expansion (12 mg, n = 8), grade ≥3

tinengotinib
Patients with study drug-related TEAE leading to study drug permanent discontinuation (dose escalation 12 mg (n=12)): 1 (8.3) n (%)
Patients with study drug-related grade ≥3 TEAE (dose escalation 12 mg (n=12)): 6 (50.0) n (%)
Patients with study drug-related treatment-emergent SAE (dose escalation 12 mg (n=12)): 0 n (%)
Patients with treatment-emergent SAE (dose escalation 12 mg (n=12)): 5 (41.7) n (%)
Patients with AE (dose escalation 15 mg (n=6)): 6 (100) n (%)
Patients with TEAE (dose escalation 15 mg (n=6)): 6 (100) n (%)
Patients with TEAE leading to death (dose escalation 15 mg (n=6)): 0 n (%)
Patients with TEAE leading to dose adjustment/temporary interruption (dose escalation 15 mg (n=6)): 4 (66.7) n (%)
Patients with TEAE leading to study drug permanent discontinuation (dose escalation 15 mg (n=6)): 3 (50.0) n (%)
Patients with grade ≥3 TEAE (dose escalation 15 mg (n=6)): 5 (83.3) n (%)
Patients with study drug-related TEAE (dose escalation 15 mg (n=6)): 5 (83.3) n (%)
Patients with study drug-related TEAE leading to dose adjustment/temporary interruption (dose escalation 15 mg (n=6)): 3 (50.0) n (%)
Patients with study drug-related TEAE leading to study drug permanent discontinuation (dose escalation 15 mg (n=6)): 0 n (%)
Patients with study drug-related grade ≥3 TEAE (dose escalation 15 mg (n=6)): 3 (50.0) n (%)
Patients with study drug-related treatment-emergent SAE (dose escalation 15 mg (n=6)): 1 (16.7) n (%)
Patients with treatment-emergent SAE (dose escalation 15 mg (n=6)): 4 (66.7) n (%)
Study drug-related TEAE [1]: 33 (82.5) No. (%)
Study drug-related TEAE: Alanine aminotransferase increased [1]: 4 (10.0) No. (%)
Study drug-related TEAE: Aspartate aminotransferase increased [1]: 4 (10.0) No. (%)
Study drug-related TEAE: Blood thyroid-stimulating hormone increased [1]: 4 (10.0) No. (%)
Study drug-related TEAE: Decreased appetite [1]: 5 (12.5) No. (%)
Study drug-related TEAE: Diarrhea [1]: 15 (37.5) No. (%)
Study drug-related TEAE: Dry mouth [1]: 5 (12.5) No. (%)
Study drug-related TEAE: Hypertension [1]: 19 (47.5) No. (%)
Study drug-related TEAE: Myalgia [1]: 5 (12.5) No. (%)
Study drug-related TEAE: Nausea [1]: 11 (27.5) No. (%)
Study drug-related TEAE: Palmar-plantar erythrodysesthesia syndrome [1]: 10 (25.0) No. (%)
Study drug-related TEAE: Proteinuria [1]: 6 (15.0) No. (%)
Study drug-related TEAE: Stomatitis [1]: 9 (22.5) No. (%)
Study drug-related TEAE: Vomiting [1]: 10 (25.0) No. (%)
Study drug-related serious TEAE [1]: 5 (12.5) No. (%)
Study drug-related TEAE [2]: 16 (40.0) No. (%)
Study drug-related TEAE: Alanine aminotransferase increased [2]: 0 No. (%)
Study drug-related TEAE: Aspartate aminotransferase increased [2]: 0 No. (%)
Study drug-related TEAE: Blood thyroid-stimulating hormone increased [2]: 0 No. (%)
Study drug-related TEAE: Decreased appetite [2]: 0 No. (%)
Study drug-related TEAE: Diarrhea [2]: 1 (2.5) No. (%)
Study drug-related TEAE: Dry mouth [2]: 0 No. (%)
Study drug-related TEAE: Hypertension [2]: 9 (22.5) No. (%)
Study drug-related TEAE: Myalgia [2]: 0 No. (%)
Study drug-related TEAE: Nausea [2]: 1 (2.5) No. (%)
Study drug-related TEAE: Palmar-plantar erythrodysesthesia syndrome [2]: 1 (2.5) No. (%)
Study drug-related TEAE: Proteinuria [2]: 0 No. (%)
Study drug-related TEAE: Stomatitis [2]: 2 (5.0) No. (%)
Study drug-related TEAE: Vomiting [2]: 0 No. (%)
Study drug-related serious TEAE [2]: 0 No. (%)
Patients with AE (dose escalation total (n=40)): 39 (97.5) n (%)
Patients with TEAE (dose escalation total (n=40)): 39 (97.5) n (%)
Patients with TEAE leading to death (dose escalation total (n=40)): 0 n (%)
Patients with TEAE leading to dose adjustment/temporary interruption (dose escalation total (n=40)): 24 (60.0) n (%)
Patients with TEAE leading to study drug permanent discontinuation (dose escalation total (n=40)): 12 (30.0) n (%)
Patients with grade ≥3 TEAE (dose escalation total (n=40)): 26 (65.0) n (%)
Patients with study drug-related TEAE (dose escalation total (n=40)): 33 (82.5) n (%)
Patients with study drug-related TEAE leading to dose adjustment/temporary interruption (dose escalation total (n=40)): 18 (45.0) n (%)
Patients with study drug-related TEAE leading to study drug permanent discontinuation (dose escalation total (n=40)): 6 (15.0) n (%)
Patients with study drug-related grade ≥3 TEAE (dose escalation total (n=40)): 16 (40.0) n (%)
Patients with study drug-related treatment-emergent SAE (dose escalation total (n=40)): 5 (12.5) n (%)
Patients with treatment-emergent SAE (dose escalation total (n=40)): 18 (45.0) n (%)
Patients with AE (dose expansion 12 mg (n=8)): 8 (100) n (%)
Patients with TEAE (dose expansion 12 mg (n=8)): 8 (100) n (%)
Patients with TEAE leading to death (dose expansion 12 mg (n=8)): 0 n (%)
Patients with TEAE leading to dose adjustment/temporary interruption (dose expansion 12 mg (n=8)): 7 (87.5) n (%)
Patients with TEAE leading to study drug permanent discontinuation (dose expansion 12 mg (n=8)): 0 n (%)
Patients with grade ≥3 TEAE (dose expansion 12 mg (n=8)): 5 (62.5) n (%)
Patients with study drug-related TEAE (dose expansion 12 mg (n=8)): 8 (100) n (%)
Patients with study drug-related TEAE leading to dose adjustment/temporary interruption (dose expansion 12 mg (n=8)): 7 (87.5) n (%)
Patients with study drug-related TEAE leading to study drug permanent discontinuation (dose expansion 12 mg (n=8)): 0 n (%)
Patients with study drug-related grade ≥3 TEAE (dose expansion 12 mg (n=8)): 5 (62.5) n (%)
Patients with study drug-related treatment-emergent SAE (dose expansion 12 mg (n=8)): 3 (37.5) n (%)
Patients with treatment-emergent SAE (dose expansion 12 mg (n=8)): 4 (50.0) n (%)
Study drug-related TEAE [3]: 8 (100) No. (%)
Study drug-related TEAE: Alanine aminotransferase increased [3]: 1 (12.5) No. (%)
Study drug-related TEAE: Aspartate aminotransferase increased [3]: 1 (12.5) No. (%)
Study drug-related TEAE: Blood thyroid-stimulating hormone increased [3]: 3 (37.5) No. (%)
Study drug-related TEAE: Decreased appetite [3]: 2 (25.0) No. (%)
Study drug-related TEAE: Diarrhea [3]: 1 (12.5) No. (%)
Study drug-related TEAE: Dry mouth [3]: 0 No. (%)
Study drug-related TEAE: Hypertension [3]: 5 (62.5) No. (%)
Study drug-related TEAE: Myalgia [3]: 0 No. (%)
Study drug-related TEAE: Nausea [3]: 0 No. (%)
Study drug-related TEAE: Palmar-plantar erythrodysesthesia syndrome [3]: 4 (50.0) No. (%)
Study drug-related TEAE: Proteinuria [3]: 0 No. (%)
Study drug-related TEAE: Stomatitis [3]: 5 (62.5) No. (%)
Study drug-related TEAE: Vomiting [3]: 0 No. (%)
Study drug-related TEAE [4]: 5 (62.5) No. (%)
Study drug-related TEAE: Alanine aminotransferase increased [4]: 0 No. (%)
Study drug-related TEAE: Aspartate aminotransferase increased [4]: 0 No. (%)
Study drug-related TEAE: Blood thyroid-stimulating hormone increased [4]: 0 No. (%)
Study drug-related TEAE: Decreased appetite [4]: 0 No. (%)
Study drug-related TEAE: Diarrhea [4]: 0 No. (%)
Study drug-related TEAE: Dry mouth [4]: 0 No. (%)
Study drug-related TEAE: Hypertension [4]: 4 (50.0) No. (%)
Study drug-related TEAE: Myalgia [4]: 0 No. (%)
Study drug-related TEAE: Nausea [4]: 0 No. (%)
Study drug-related TEAE: Palmar-plantar erythrodysesthesia syndrome [4]: 0 No. (%)
Study drug-related TEAE: Proteinuria [4]: 0 No. (%)
Study drug-related TEAE: Stomatitis [4]: 0 No. (%)
Study drug-related TEAE: Vomiting [4]: 0 No. (%)
Study drug-related serious TEAE [4]: 0 No. (%)
Dose recommended for dose expansion (DRDE) (orally once daily, 28-day cycle): 12 mg
Study drug-related TEAE (total (n = 48), any grade): 41 (85.4) No. (%)
Study drug-related TEAE: Alanine aminotransferase increased (total (n = 48), any grade): 5 (10.4) No. (%)
Study drug-related TEAE: Aspartate aminotransferase increased (total (n = 48), any grade): 5 (10.4) No. (%)
Study drug-related TEAE: Blood thyroid-stimulating hormone increased (total (n = 48), any grade): 7 (14.6) No. (%)
Study drug-related TEAE: Decreased appetite (total (n = 48), any grade): 7 (14.6) No. (%)
Study drug-related TEAE: Diarrhea (total (n = 48), any grade): 16 (33.3) No. (%)
Study drug-related TEAE: Dry mouth (total (n = 48), any grade): 5 (10.4) No. (%)
Study drug-related TEAE: Hypertension (total (n = 48), any grade): 24 (50.0) No. (%)
Study drug-related TEAE: Myalgia (total (n = 48), any grade): 5 (10.4) No. (%)
Study drug-related TEAE: Nausea (total (n = 48), any grade): 11 (22.9) No. (%)
Study drug-related TEAE: Palmar-plantar erythrodysesthesia syndrome (total (n = 48), any grade): 14 (29.2) No. (%)
Study drug-related TEAE: Proteinuria (total (n = 48), any grade): 6 (12.5) No. (%)
Study drug-related TEAE: Stomatitis (total (n = 48), any grade): 14 (29.2) No. (%)
Study drug-related TEAE: Vomiting (total (n = 48), any grade): 10 (20.8) No. (%)
Study drug-related TEAE (total (n = 48), grade ≥3): 21 (43.8) No. (%)
Study drug-related TEAE: Alanine aminotransferase increased (total (n = 48), grade ≥3): 0 No. (%)
Study drug-related TEAE: Aspartate aminotransferase increased (total (n = 48), grade ≥3): 0 No. (%)
Study drug-related TEAE: Blood thyroid-stimulating hormone increased (total (n = 48), grade ≥3): 0 No. (%)
Study drug-related TEAE: Decreased appetite (total (n = 48), grade ≥3): 0 No. (%)
Study drug-related TEAE: Diarrhea (total (n = 48), grade ≥3): 1 (2.1) No. (%)
Study drug-related TEAE: Dry mouth (total (n = 48), grade ≥3): 0 No. (%)
Study drug-related TEAE: Hypertension (total (n = 48), grade ≥3): 13 (27.1) No. (%)
Study drug-related TEAE: Myalgia (total (n = 48), grade ≥3): 0 No. (%)
Study drug-related TEAE: Nausea (total (n = 48), grade ≥3): 1 (2.1) No. (%)
Study drug-related TEAE: Palmar-plantar erythrodysesthesia syndrome (total (n = 48), grade ≥3): 1 (2.1) No. (%)
Study drug-related TEAE: Proteinuria (total (n = 48), grade ≥3): 0 No. (%)
Study drug-related TEAE: Stomatitis (total (n = 48), grade ≥3): 2 (4.2) No. (%)
Study drug-related TEAE: Vomiting (total (n = 48), grade ≥3): 0 No. (%)
Study drug-related serious TEAE (total (n = 48), grade ≥3): 0 No. (%)
Patients with AE (total (n=48)): 47 (97.9) n (%)
Patients with TEAE (total (n=48)): 47 (97.9) n (%)
Patients with TEAE leading to death (total (n=48)): 0 n (%)
Patients with TEAE leading to dose adjustment/temporary interruption (total (n=48)): 31 (64.6) n (%)
Patients with TEAE leading to study drug permanent discontinuation (total (n=48)): 12 (25.0) n (%)
Patients with grade ≥3 TEAE (total (n=48)): 31 (64.6) n (%)
Patients with study drug-related TEAE (total (n=48)): 41 (85.4) n (%)
Patients with study drug-related TEAE leading to dose adjustment/temporary interruption (total (n=48)): 25 (52.1) n (%)
Patients with study drug-related TEAE leading to study drug permanent discontinuation (total (n=48)): 6 (12.5) n (%)
Patients with study drug-related grade ≥3 TEAE (total (n=48)): 21 (43.8) n (%)
Patients with study drug-related treatment-emergent SAE (total (n=48)): 8 (16.7) n (%)
Patients with treatment-emergent SAE (total (n=48)): 22 (45.8) n (%)
